Measurements as given in patent US6525042B1 (Daiichi Pharmaceutical Co., Ltd., priority 1997, dated 2003).
Each block holds one compound with its values, some of them ahead of it.

Key:
human FXa [1] = target: T1, human FXa (Homo sapiens, UniProt P00742); assay: FXa inhibitory action (IC50), end point method; type: biochemical; conditions: 37° C. for 15 minutes, read-out: FXa 50% inhibitory concentration
T1 construct: purchased Cosmobio-ERL HFXa-1011
Procedure: (§1) Measurement of FXa Inhibitory Action (IC50)
A sample solution (100 μl), 280 μl of a 100 mM tris −200 mM sodium chloride (pH 7.4) buffer and 100 μl of a 1 mM S2222 (Chromogenix Corp.) solution were mixed and heated at 37° C. To the resulting mixture, 20 μl of 0.625 U/ml human FXa (“Cosmobio-ERL HFXa-1011”, dissolved in and diluted with a measuring buffer) were added, followed by heating at 37° C. for 15 minutes. To the resulting mixture, 100 μl of 1M citric acid were added and then, the absorbance at 405 nm was measured. The mixture to which only the diluting solvent for the sample was added instead of the sample was used as a blank, while the mixture to which 1M citric acid was added prior to the addition of FXa was used as a control. The concentration of the sample (IC50) at which 50% of FXa activity was inhibited was determined and it was designated as an index of FXa inhibitory action.

human thrombin [2] = target: T2, human thrombin (Homo sapiens, UniProt P00734); assay: Thrombin inhibitory action (IC50), reaction rate method; type: biochemical; conditions: room temperature, read-out: thrombin 50% inhibitory concentration
T2 construct: purchased Sigma Chemical
Procedure: (§2) Measurement of Thrombin Inhibitory Action (IC50)
In a 96-well microtiter plate, 10 μl of a sample solution, 40 μl of a 100 mM tris −200 mM sodium chloride −0.2% BSA (pH: 7.4) buffer and 10 μl of 4 U/ml human thrombin (Sigma Chemical, dissolved in and diluted with a measuring buffer) were poured, followed by the addition of 40 μl of 500 μM S2266 (product of Chromogenix). An increase (mOD/min) in the absorbance at 405 nm was measured at room temperature. From the below-described equation, an inhibitory ratio % of each sample was determined. On a logarithmic probability paper, the final concentration of the sample and inhibitory ratio were plotted along the abscissa and the ordinate, respectively, whereby a 50% inhibitory concentration (IC50) was found.
(§3) Inhibitory ratio (%)=(1−OD of sample÷OD of control)×100

[3] = tested on: tissue thromboplastin-derived rat DIC model; assay: Anti-thrombus effects in a tissue thromboplastin-derived rat DIC model; type: in vivo; conditions: oral 30 mg/kg, tissue thromboplastin one hour after the sample
Procedure: Testing Method of Anti-thrombus Effects in a Tissue Thromboplastin-derived Rat DIC Model
A rat was anesthetized with halothane. After the collection of the blood (for measurement of the number of platelets, anti-FXa activity and TAT) from its cervical vein by using 1/10 part by weight of 3.13% (w/v) sodium citrate, the sample was administered orally. At an appropriate time after the administration, the rat was intraperioneally anesthetized (1 mg/kg) with Nembutal (50 mg/ml pentobarbital sodium, Abott Laboratories), followed by intravenous drip of 0.2 U/ml of tissue thromboplastin (Thromboplastin C plus, Dade Diagnostics of P. R. Inc.,) from the femoral vein for one minute at a rate of 2.5 to 3.0 ml/kg/min. The blood was collected (for measuring the number of platelets and anti-FXa activity) from the cervical vein 10 minutes after the intravenous drip and the blood was collected (for measuring TAT) from the cervical vein 20 minutes after the blood collection. The number of platelets, anti-FXa activity in the plasma and TAT concentration of each blood sample were measured. The number of the platelets was measured by an automatic cytometer, while the anti-FXa activity in the plasma was measured in a similar manner to that described in Test 7.
For the measurement of TAT (Thrombin-anti Thrombin=complex), EnzygnostR TAT micro kit (Boering Verke) was employed.

human FXa [4] = target: T1, human FXa; assay: Measurement of Ki value against FXa; type: biochemical; conditions: substrate S2222, Dixon plot
Procedure: Measurement of Ki Value Against FXa
In a 96-well microtiter plate, 5 μl of a sample solution, 5 μl of purified water, 40 μl of a 100 mM tris −200 mM sodium chloride −0.2% BSA (pH: 7.4) buffer and 10 μl of 0.05 U/ml human FXa (product of Enzyme Research, dissolved in and diluted with a measuring buffer) were poured, followed by the addition of 40 μl of S2222 (product of Chromogenix, final concentration: 75, 150, 300 and 600 μM). […] The median of six values available by solving simultaneous equations was designated as a Ki value.

human thrombin [5] = target: T2, human thrombin; assay: Measurement of Ki value against thrombin; type: biochemical; conditions: Dixon plot
Procedure: Measurement of Ki Value Against Thrombin
In a 96-well microtiter plate, 5 μl of a sample solution, 5 μl of purified water, 40 μl of a 100 mM tris −200 mM sodium chloride −0.2% BSA (pH: 7.4) buffer and 10 μl of 5 U/ml human thrombin (product of Sigma Chemical, dissolved in and diluted with a measuring buffer) were poured in portions, followed by the addition of 40 μl of S2226 (product of Chromogenix, final concentration: 50, 100, 200 and 400 μM). […] The median of six values available by solving simultaneous equations was designated as a Ki value.

plasma [6] = assay: Oral administration test: coagulation extending action (prothrombin time); type: in vivo; conditions: rat, 30 mg/kg, one hour after the administration
Procedure: (§4) Test of Oral Administration
(§5) A sample was dissolved or suspended in a 0.5% (w/v) methyl cellulose solution and the resulting solution or suspension was orally administered (10 ml/kg) to a 8 to 11 week-old rat (Wistar male rat (Nippon SLC Co., Ltd.)) which had been fasted overnight. After administration of the sample, the blood to which 1/10 part by weight of 3.13% (w/v) sodium citrate had been added was collected from the cervical vein. The rat was awakened except during the blood collection. Feeding was re-started 6 hours after the blood collection. From each blood sample, the plasma was separated by centrifugal separation and anti-FXa activity in the blood and prothrombin time extending action were measured.
2-2) Measurement of Coagulation Extending Action in Oral Administration (Measurement of Prothrombin Time)
To 20 μl of the plasma, 40 μl of cynplastin (Organon Teknika/USA) were added and the coagulation time was measured. The ratio of the prothrombin time after the administration of the sample relative to the prothrombin time before the administration of the sample was designated as an index of the coagulation extending action.

human Factor Xa = human Factor Xa (Homo sapiens, UniProt P00742); assay: Oral administration test: anti-FXa activity in the plasma; type: in vivo; conditions: rat, 30 mg/kg, one hour after the administration
Chain of human Factor Xa (P00742 235-488 limits assumed): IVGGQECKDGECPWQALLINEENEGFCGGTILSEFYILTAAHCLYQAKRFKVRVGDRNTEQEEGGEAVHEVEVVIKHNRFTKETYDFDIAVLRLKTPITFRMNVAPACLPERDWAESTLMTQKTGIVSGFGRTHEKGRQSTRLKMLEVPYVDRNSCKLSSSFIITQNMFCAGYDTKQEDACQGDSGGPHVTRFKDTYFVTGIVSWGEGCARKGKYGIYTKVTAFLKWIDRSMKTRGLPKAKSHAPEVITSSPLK
Chain of human Factor Xa (P00742 41-179 partner limits assumed): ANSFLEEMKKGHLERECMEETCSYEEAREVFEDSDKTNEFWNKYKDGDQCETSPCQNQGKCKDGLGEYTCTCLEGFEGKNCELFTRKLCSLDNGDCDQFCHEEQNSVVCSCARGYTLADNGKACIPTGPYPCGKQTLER
Procedure: as §4, §5
2-1) Measurement of Anti-FXa Activity in the Plasma
In a 96-well plate, 5 μl of the plasma was poured in portions, followed by the addition of 55 μl of a 8:1:2 mixture of 100 mM tris −200 mM sodium chloride −0.2% BSA (pH 7.4) buffer, water and 0.1 U/ml human Factor Xa solution (dissolved in and diluted with a measuring buffer) and 40 μl of 750 μM S-2222. After stirring for 10 seconds in a plate mixer, an increase (mOD/min) of the absorbance at 405 nm was measured at room temperature. The inhibitory ratio was calculated as follows:
An inhibitory ratio (%)=(1−OD of sample÷OD of control on average relative to blood-collecting time of sample)×100

Plasma [7] = assay: Coagulation extending action (prothrombin time) in plasma; type: biochemical
Procedure: Measurement of Coagulation Extending Action (Measurement of Prothrombin Time)
Plasma (20 μl) and 20 μl of a sample solution were mixed. To the resulting mixture, […] of cynplastin (product of Organon Teknika) were added and the coagulation time was measured. The concentration of the sample (CT2) at which the coagulation time of the plasma was increased twice was found and it was designated as an index of anticoagulant action.

human FXa [8] = target: T1, human FXa; assay: FXa inhibitory action (IC50), reaction rate method; type: biochemical; conditions: room temperature, read-out: FXa 50% inhibitory concentration
Procedure: as §1
In a 96-well microtiter plate, 10 μl of a sample solution, 40 μl of a 100 mM tris −200 mM sodium chloride −0.2% BSA (pH: 7.4) buffer and 10 μl of 0.05 U/ml human FXa (“Cosmobio-ERL HFXa-1011”, dissolved in and diluted with a measuring buffer) were poured in portions, followed by the addition of […] of S2222 (product of Chromogenix). An increase (mOD/min) in the absorbance at 405 nm was measured at room temperature. From the below-described equation, an inhibitory ratio % of each sample was determined. On a logarithmic probability paper, the final concentration of the sample and inhibitory ratio % were plotted along the abscissa and the ordinate, respectively, whereby a 50% inhibitory concentration (IC50) was determined.
as §3

human thrombin [9] = target: T2, human thrombin; assay: Thrombin inhibitory action (IC50), end point method; type: biochemical; conditions: 37° C. for 10 minutes, read-out: thrombin 50% inhibitory concentration
Procedure: as §2
A sample solution (100 μl), 280 μl of a 100 mM tris −200 mM sodium chloride (pH 7.4) buffer and 100 μl of 1 mM S2238 (Chromogenix) solution were mixed and heated at 37° C. To the resulting mixture, 20 μl of 1 U/ml human thrombin (Sigma Chemical, dissolved in and diluted with a measuring buffer) were added, followed by heating at 37° C. for 10 minutes. To the resulting mixture, 100 μl of 1M citric acid were added and then, the absorbance at 405 nm was measured. The mixture to which only the diluting solvent was added instead of the sample was used as a blank, while the mixture to which 1M citric acid was added prior to the addition of thrombin was used as a control. The sample concentration (IC50) at which 50% of thrombin activity was inhibited was found and it was designated as an index of thrombin inhibitory action.

T1 sequence (P00742 235-488 limits assumed): as the sequence (P00742 235-488 limits assumed) above
T1 sequence (P00742 41-179 partner limits assumed): as the sequence (P00742 41-179 partner limits assumed) above

Compound: O=C(c1ccc(-c2cccc[n+]2[O-])cc1)N1CCN(S(=O)(=O)c2ccc3cc(Cl)ccc3c2)CC1 [Example 19, 2-[4-[[4-[(6-Chloronaphthalen-2-yl)sulfonyl]piperazin-1-yl]carbonyl]phenyl]pyridine N-oxide]
IC50 (human FXa [1]): 0.072 µM
IC50 (human thrombin [2]): 1.9 µM

Compound: O=C(c1ccc(-c2cc[n+]([O-])cc2)cc1)N1CCN(S(=O)(=O)c2ccc3cc(Cl)ccc3c2)CC1 [Example 6, 4-[4-[[4-[(6-Chloronaphthalen-2-yl)sulfonyl]piperazin-1-yl]carbonyl]phenyl]pyridine N-oxide]
IC50 (human FXa [1]): 0.125 µM

Compound: CC1Cc2nc(C(=O)N3CCN(S(=O)(=O)c4ccc5cc(Cl)ccc5c4)CC3C(N)=O)sc2CN1.Cl (stereo not shown) [Example 95, 2-Carbamoyl-4-[(6-chloronaphthalen-2-yl)sulfonyl]-1-[(6-methyl-4,5,6,7-tetrahydrothiazolo[5,4-c]pyridin-2-yl)carbonyl]piperazine hydrochloride]
anti-FXa action in the plasma [3]: apparent anti-FXa action in the plasma was recognized
decrease in the number of the platelets [3]: suppressed
increase in the TAT concentration [3]: suppressed

Compound: 2-[[4-[(6-Chloronaphthalen-2-yl)sulfonyl]piperazin-1-yl]carbonyl]-6,6-dimethyl-4,5,6,7-tetrahydrothiazolo[5,4-c]pyridinium iodide [Example 92]
CT2 (concentration at which the coagulation time of the plasma was increased twice) (Plasma [7]): 0.35 µM
IC50 (human FXa [8]): 0.0078 µM
IC50 (human thrombin [9]): ≥ 200 µM

The next lines start with results.

Ki (human FXa [4]): 0.0109 µM
Ki (human thrombin [5]): 3.3 µM
Compound: C[N+]1([O-])CCc2nc(C(=O)N3CCN(S(=O)(=O)c4ccc5cc(Cl)ccc5c4)CC3)sc2C1 (stereo not shown) [Example 93]

anti-FXa activity in the plasma (human Factor Xa): 70%
Compound: Cl.O=C(C1CC=C(c2ccncc2)CC1)N1CCN(S(=O)(=O)c2ccc3cc(Cl)ccc3c2)CC1 (racemic) [Example 110, 1-[(6-Chloronaphthalen-2-yl)sulfonyl]-4-[[(1RS)-4-(pyridin-4-yl)-3-cyclohexene]carbonyl]piperazine hydrochloride]
extension of the prothrombin time (ratio after/before administration) (plasma [6]): 1.18 times
